Results published in patent US20220249596A1, “PIC1 PEPTIDE COMPOSITIONS AND METHODS OF USE THEREOF FOR TREATMENT OF HYPOXIC ISCHEMIC ENCEPHALOPATHY” (REALTA HOLDINGS, LLC, priority 2019, published 2022).
“Also recorded” adds a separate entry of the source. No end group written: not given here.

What was measured:
Assay type in all cases: in vivo, rat
[1] = tested on: C3a; experiment: Systemic C3a level in plasma, ELISA; conditions: 8, 12 and 24 hours after initial insult, P<0.05
Procedure: Systemic C1q and C5a levels were measured as follows. 100 μl of 1:5 plasma in 1×PBS was added to the wells of a plate described above and incubated overnight at 4° C. The plates were washed 3 times with PBST and blocked with NDS or NGS for one hour. Samples were probed with either 1:50 goat anti-human C1q (Complement Technology) in NDS or 1:200 mouse anti-human C5a (Human Complement Component C5a DuoSet ELISA, R&D Systems, Inc., Minneapolis, Minn.) in NGS for one hour at RT. The wells were washed and 1:500 donkey anti-goat 488 (Life Technologies) in NDS or 1:500 goat anti-mouse AF 568 (Life Technologies) in NGS was added, and incubated for one hour at RT. The wells were washed and the plate read using a Synergy HT (BioTek). Systemic C3a levels in plasma (1:20 dilution) were measured using a standard ELISA, according to the manufacturer's instructions (Rat C3a ELISA Kit, TSZ ELISA, Waltham, Mass.).

[2] = tested on: apoptosis in cortex and hippocampus; experiment: TUNEL/DAPI/C1q staining of brain sections 48 hours after injury
Procedure: To assess the effect of PIC1 on cell death at 48 hours after the initial injury, TUNEL staining, alone or in combination with C1q staining, was utilized to measure DNA strand breaks that are generated during apoptosis.
TUNEL/C1q staining was performed as follows. Five (5) μm paraffin-embedded coronal brain sections on slides were incubated (1 hour; 60° C.), deparaffinized with xylene, and rehydrated with ethanol (100%, 95%, 70%; RT). Endogenous peroxidase activity was blocked (0.3% H2O2/MeOH; 10 minutes; RT), and heat induced antigen retrieval was performed (when indicated) using 10 mM sodium citrate, pH 6.0. 10% normal serum (from the same species as the host of the secondary antibody) was used to block and to dilute antibodies. Samples were washed twice for 10 min each, in PBST between each step.
For C1q/TUNEL co-staining, tissue was incubated with the TUNEL solution according to manufacturer's instructions (In Situ Cell Death Detection Kit, Roche Molecular Diagnostics, Pleasanton, Calif.), followed by blocking with NGS for one hour at room temperature. C1q was probed using 1:300 mouse anti-C1q (Abcam) in NGS for 30 min at 37° C., followed by incubation in 1:500 goat anti-mouse (Abcam) AF 568 for 30 min at 37° C. All samples were mounted with aqueous mounting media comprising 4′,6-diamidino-2-phenylindole (Vectashield antifade mounting medium with DAPI, Vector Laboratories, Burlingame, Calif.) and coverslipped.
Fluorescent images of the cortex were taken at 20× magnification using a digital camera (DP70, Olympus Center, Valley Forge, Pa.), mounted on a BX50 Olympus microscope. Adobe Photoshop CS5 was used to merge immunofluorescence images, and Image J (National Institutes of Health) was used for analysis.

[3] = T-maze test; conditions: six weeks after surgery, between study groups, pooled and separated genders
Excerpt: No other preparation was needed. The thawed tubes were kept on ice until dosing.
The T-maze test apparatus was plastic with two 45 cm long arms, which extend at right-angles from a 57 cm long alley (see www.noldus.com/animal-behavior-research/t-maze). The arms have a width of 10 cm and were surrounded by 10 cm high walls. The test consists of two trials at an interval of five minutes, during which time the animals are returned to their home cages. During an eight minute acquisition trial, one of the short arms was closed. In a three minute test trial, rats had access to both arms and to the alley. Time spent in each of the arms and in the long alley was assessed. Cognitively healthy rats tended to spend more time in the novel arm than in the familiar one or in the alley.
In an eight minute acquisition trial, while the novel arm is blocked, each rat was lowered to the beginning of the alley arm, facing the wall, and allowed to freely explore the maze's arms (start arm (alley arm), center and familiar arm), while the novel arm was inaccessible. […]
During the three minute test trial, with all three arms accessible (the wall of the novel arm was removed), each rat was allowed to freely explore the whole maze. Time spent in each of the arms was recorded using EthoVision XT 11 automated tracking system (Noldus Information Technology).

[4] = tested on: TMEM119 (microglia); experiment: TMEM119 and Iba1/TMEM119 staining of cortex; conditions: 48 hours after injury
Procedure: After blocking for one hour at room temperature, tissues were incubated with 1:300 goat anti-Iba1 (Abcam), 1:250 goat anti-GFAP (Abcam), 1:500 chicken anti-NeuN (Millipore, Billerica, Mass.), or 1:100 mouse anti-NeuN (Millipore) in host appropriate blocking serum overnight at 4° C. Primary antibodies were probed with 1:500 donkey anti-goat (Abcam), goat anti-chicken (Abcam), or goat anti-mouse (Abcam) AF 488 or 568 in appropriate blocking serum for one hour at room temperature. Tissues were blocked a second time with NGS for one hour at room temperature. Samples were then probed with 1:300 mouse anti-C1q (Abcam), 1:300 rabbit anti-C9, 1:50 rabbit anti-MPO (Abcam), 1:200 rabbit anti-TMEM (Novus Bio, Centennial, Colo.), 1:100 rabbit anti-C3aR (Bioss), 1:100 Mouse anti-C5aR (Hycult), or 1:200 chicken anti-C3/C3a (Abcam) in NGS overnight at 4° C. and then with 1:500 goat anti-mouse, rabbit, or chicken (Abcam) AF 488 or 568 in NGS for one hour at room temperature.
Accordingly, a more specific microglial marker was used to differentiate microglia from infiltrated peripheral macrophages. TMEM119 is a reliable microglial marker that discriminates resident microglia from blood-derived macrophages in the brain [21].

Substance: IALILEPICCQERAA-dPEG24 (cysteine pairing not given here) [PIC1]
- C3a levels in plasma, NT animals relative to PIC1-treated animals [1]: significantly higher
- TUNEL positive cells (DNA fragmentation), cortex and hippocampus ([2]; 48 hours, versus NT (P=0.02) and HT (P=0.04)): significantly fewer
- cell count ([2]; PIC1- versus HT-treated animals): no significant difference
- nucleus size ([2]; versus NT (P=0.02) and HT (P=0.04)): significantly improved
- nuclear density by DAPI staining ([2]; versus NT animals, P=0.01): markedly improved
- C1q/TUNEL co-localization ([2]; versus NT animals, ipsilateral cortex): qualitative reduction
- cell counts (stained nuclei) ([2]; versus NT, P=0.03): significantly improved
- T-maze: time spent in novel and familiar arms, alley, center [3]: no significant differences; also recorded: No statistical significances
- combined Iba1/TMEM119 staining in the cortex ([4]; versus NT and HT animals): almost two-fold decrease
- TMEM119 expression in the cortex ([4]; versus NT brains): almost a three-fold decrease
